Experiments:
TAZ protein = experiment: Imaging analysis of nuclear translocation in SKOV3 cells; type: cell-based, human; conditions: 10 μM, 4 hr, ratio of fluorescence intensity nucleus/cytoplasm, no addition 6.98
Procedure: (§1) Compounds k-1:B-1, k-1:H-1, and k-1:J-1 were evaluated for nuclear translocation of YAP protein and TAZ protein. For the nuclear translocation, imaging analysis was performed using the human ovarian cancer cell line SKOV3 (manufactured by DS Pharma Biomedical Co., Ltd) and OperettaCLS (manufactured by PerkinElmer) described below. The compounds were added such that the final concentration of the test concentration of k-1:B-1, k-1:H-1, and k-1:J-1 was 10 μM.
(§2) Human ovarian cancer cell line SKOV3 cultured according to the protocol recommended by DS Pharma Biomedical Co., Ltd. was seeded on a 96-well plate (manufactured by PerkinElmer, CellCarrier-Ultra) at 15,000 cells/90 μL/well on the cycloolefin bottom surface, and cultured in a CO2 incubator (37° C., 5% CO2) for 1 day. After culturing, 10 μL of k-1:B-1, k-1:H-1, and k-1:J-1 solutions having a concentration of 100 μM and dissolved in DMSO was added. The cells were further cultured in a CO2 incubator at 37° C. for 4 hr. The medium was exchanged with 4% para-formaldehyde, and the cells were fixed by allowing to stand at room temperature for 10 min. The fixed cells were subjected to immunostaining with AlexaFluor® 647-labeled YAP antibody (manufactured by Cell Signaling Technology), anti-mouse TAZ (D-8) antibody (manufactured by SantaCruz), AlexaFluor® 555-labeled anti-mouse IgG antibody (manufactured by Thermo Fisher Scientific), according to the recommended protocol produced by Cell Signaling Technology, and the cell nucleus was further stained with 10 μg/mL Hoechst33342 solution.
(§3) Nine fields of view were imaged per well using a 20× objective lens of Operatta CLS. The cell nucleus region and the cytoplasm region were identified from the obtained fluorescence images by using the analysis software Harmony (manufactured by PerkinElmer), and AlexaFluor® 647 fluorescence intensity per unit area and the AlexaFluor® 555 fluorescence intensity per unit area in each region were extracted. The nuclear translocation was evaluated by calculating the ratio of the fluorescence intensity of the cell nucleus region to the fluorescence intensity of the cytoplasmic region from the extracted values. The value becomes greater than 1 as the YAP protein and TAZ protein transfer into the cell nucleus, and less than 1 when localized in the cytoplasm.
(§4) The specific compound used in the present invention was evaluated for the nuclear translocation of YAP protein and TAZ protein. For the nuclear translocation, imaging analysis was performed using the human ovarian cancer cell line SKOV3 (DS Pharma Biomedical Co., Ltd) and OperettaCLS (PerkinElmer) described below. The specific compound was added such that the final concentration of the test concentration of the compound used in the present invention was 10 μM.
(§5) Human ovarian cancer cell line SKOV3 cultured according to the protocol recommended by DS Pharma Biomedical Co., Ltd. was seeded on a 96-well plate (PerkinElmer, CellCarrier-Ultra) at 15,000 cells/90 μL/well on the cycloolefin bottom surface, and cultured in a CO2 incubator (37° C., 5% CO2) for 1 day. After culturing, a solution of the specific compound used in the present invention dissolved in DMSO was added. The cells were further cultured in a CO2 incubator at 37° C. for 4 hr, the medium was exchanged with 4% para-formaldehyde, and the cells were fixed by allowing to stand at room temperature for 10 min. The fixed cells were subjected to immunostaining with AlexaFluor® 647-labeled YAP antibody (Cell Signaling Technology), anti-mouse TAZ (D-8) antibody (SantaCruz), AlexaFluor® 555-labeled anti-mouse IgG antibody (Thermo Fisher Scientific), according to the recommended protocol produced by Cell Signaling Technology, and the cell nucleus was further stained with 10 μg/mL Hoechst33342 solution.
(§6) Nine fields of view were imaged per well using a 20× objective lens of Operatta CLS. […]

YAP protein = experiment: as above; type: cell-based, human; conditions: 10 μM, 4 hr, ratio of fluorescence intensity nucleus/cytoplasm, no addition 6.15
Procedure: as §1, §2, §3, §4, §5, §6

[1] = test system: mouse partial liver resection model; experiment: Liver weight increase in mouse partial liver resection model; type: in vivo; conditions: 10 mg/kg intraperitoneally 4 times every 24 hr, about 30% of the liver removed, FIG. 2
Procedure: A partial liver resection model in which the mouse liver was partially resected was prepared as described below, and the liver weight increasing effect of the specific compound was evaluated by comparing the liver weight immediately after the resection with the liver weight 3 days after the resection.
A 0.5 w/v % methylcellulose aqueous solution (0.5% MC, manufactured by FUJIFILM Wako Pure Chemical Corporation) and k-1:B-1, k-1:J-1 were evaluated. k-1:B-1 and k-1:J-1 were suspended in 0.5% MC, and prepared at a final concentration of 1 mg/mL.
Mice, BALB/cAnNCrlCrlj, 5-week-old, male, were purchased from Charles River Laboratories, Japan. In terms of the 0.5% MC administration control group, 0.5% MC 10 mL/kg was administered intraperitoneally once, and 24 hr later, the entire liver was isolated and the liver weight was measured (n=5). […] After that, the abdomen was closed, and 24 hr after the final administration, the entire liver was removed and the liver weight was measured (n=4). In terms of the k-1:B-1 or k-1:J-1 administration-control group, k-1:B-1 or k-1:J-1 10 mg/kg, 10 mL/kg, was intraperitoneally administered once, and 24 hr later, the entire liver was isolated and the liver weight was measured (n=5). […] After that, the abdomen was closed, and 24 hr after the final administration, the entire liver was removed and the liver weight was measured (n=5).

**Q.** CC/C(=N\NC(=O)C(C)Nc1ccccc1)c1ccc(O)c(C)c1O (centres unmarked) [k-1:B-1] was tested. Which “TAZ nuclear translocation rate” value (TAZ protein) did it give?
**A.** 7.93

**Q.** And the “YAP nuclear translocation rate” value (YAP protein)?
**A.** 6.98

**Q.** And the “liver weight ratio after partial liver resection” value [1]?
**A.** promoting recovery of the liver weight after excision

**Q.** Which “TAZ nuclear translocation rate” value (TAZ protein) does the source give for CCC(=NNC(=O)CNc1ccccc1)c1ccc(O)c(C)c1O [k-1:H-1] here?
**A.** 8.84

**Q.** And the “YAP nuclear translocation rate” value (YAP protein)?
**A.** 7.60

**Q.** With CC/C(=N\NC(=O)NCc1cccc(O)c1)c1ccc(O)c(C)c1O [k-1:J-1] as the molecule, how does the “TAZ nuclear translocation rate” value (TAZ protein) read?
**A.** 9.14

**Q.** What about the “YAP nuclear translocation rate” value (YAP protein) of the same molecule?
**A.** 7.92

**Q.** What about the “liver weight ratio after partial liver resection” value [1] of the same molecule?
**A.** promoting recovery of the liver weight after excision

Source: patent US20210253518A1, “KINASE INHIBITOR” (NISSAN CHEMICAL CORPORATION, priority 2018, published 2021)
